Measured values published in PubChem BioAssay AID1419 (Emory University Molecular Libraries Screening Center, 2008).
Active and inactive are the calls of the source. How the calls were made is not given here.

Assay: blockers of an Epstein-Barr virus protein-peptide interaction – biochemical, fluorescence polarization, dose response (AID 1419)
Settings: cell-free protein-peptide binding, 2 h; for fold change: measured here: P channel fold over control, at 54 µM

Row | Compound | IC50 | fold change
1 | COc1ccc(/C=C2\SC(c3ccc(C)cc3)=NC2=O)cc1OC | > 54 µM (inactive) | 8.37
2 | N#CC1=C(N)OC2=C(CC/C2=C\c2ccccc2)C1c1ccccc1 (configuration not stated) | < 0.42 µM | 6.24
3 | Cc1ccc(C2C3=C(CCCC3=O)Nc3[nH]c(=S)[nH]c(=O)c32)cc1 (configuration not stated) | > 54 µM (inactive) | 0.983
4 | Cn1c(=O)cc2c3c(c(N4CCCCC4)ccc31)C(=O)c1ccccc1-2 | 4.67 µM | 1.91
5 | O=C(CSc1nnc(SCc2ccccc2)s1)N/N=C/C=C/c1ccco1 | > 54 µM (inactive) | 1.04
6 | CCN1C(=O)/C(=C/C2=Cc3ccccc3OC2C)SC1=S (configuration not stated) | 17.2 µM | 5.33
7 | O=C1c2cccc3c([N+](=O)[O-])ccc(c23)C(=O)N1CC1CCCO1 (configuration not stated) | 13.8 µM | 2.37
8 | COc1ccc(C2CC(c3ccccc3)n3nc(NC(=O)c4cccs4)nc3N2)cc1 (configuration not stated) | > 54 µM (inactive) | 0.943
9 | CCOc1cccc(C2C(C(=O)c3ccc(C)o3)=C(O)C(=O)N2c2nccs2)c1 (configuration not stated) | < 0.42 µM | 8.6
10 | N=C1/C(=C\c2ccc(-c3ccc(C(=O)O)cc3)o2)C(=O)N=C2SC=C(c3ccccc3)N12 | 3.3 µM | 1.28
11 | COC(=O)c1ccc2c(c1)SC1=C(CCCC1=O)N2 | 1.44 µM | 3.08
12 | O=[N+]([O-])c1ccc(/C=C/c2nc3ccc([N+](=O)[O-])cc3[nH]2)cc1 | 2.48 µM | 1.15
13 | CN1C(=O)N(C)c2ccc(C=O)c3cccc1c23 | 4.91 µM | 2.37
14 | Nc1ccc(O)c2c1C(=O)c1ccccc1C2=O | 3.1 µM | 2.55
15 | CN1CC=C2C(C#N)=C(N)C(C#N)(C#N)[C@H](c3ccoc3)[C@H]2C1 | > 54 µM (inactive) | 1.96
16 | N=C1S/C(=C\c2ccc(-c3cccc(Cl)c3)o2)C(=O)N1c1nccs1 | 5.78 µM | 2
17 | CN(C)c1ccc(/C=c2/sc3n(c2=O)NC2(c4ccccc4)N(C)C(=O)N(C)C2(c2ccccc2)N=3)cc1 (configuration not stated) | > 54 µM (inactive) | 5.21
18 | CCN1/C(=C2\SC(=S)N(Cc3ccccc3)C2=O)Sc2ccccc21 | > 54 µM (inactive) | 2.96
19 | COc1nc(NCCC2=CCCCC2)nc(OC)n1 | > 54 µM (inactive) | 1
20 | c1ccc2c(c1)CCCN2Cc1nnnn1CC1CCCO1 (configuration not stated) | 4.98 µM | 2.55
21 | CC(C)(C)c1cc[n+](-c2[nH]c(=O)sc2/C=N/NC([S-])=Nc2ccccc2)cc1 | < 0.42 µM | 13.6

Row | Compound | IC50 | fold change
22 | Cc1ccc2oc(=O)c(/C=C(\O)c3ccccc3)nc2c1 | 35.4 µM (inactive) | 2.39
23 | C/C(N)=C(/C#N)C(=O)CSc1nnc(Nc2ccccc2)s1 | > 54 µM (inactive) | 0.95
24 | COc1ccc(C2CC(c3cccs3)=NN2c2ccc(C=O)cc2)cc1 (configuration not stated) | 16.2 µM | 15.4
25 | CCOC(=O)c1cc(-c2ccc(/C=C3/C(=O)NC(=O)C(C#N)=C3C)o2)ccc1Cl | < 0.42 µM | 2.14
26 | CC(=O)N/N=C/c1cc(C(C)(C)C)cc(/C=N/NC(C)=O)c1O | 4.05 µM | 3.13
27 | CC1(c2ccc3noc(-c4ccc(F)cc4)c3c2)OCCO1 | 1.53 µM | 3.53
28 | O=C(NCCCO)Nc1ccc2nc(-c3ccco3)c(-c3ccco3)nc2c1 | 4.06 µM | 5.99
29 | CN(C)c1ccc(/C=C2\SC(=O)N(CC(O)Cn3c4ccccc4c4ccccc43)C2=O)cc1 (configuration not stated) | 2.46 µM | 10.3
30 | COC(CNC(=O)c1ccc2c3c(onc13)-c1ccccc1C2=O)OC | < 0.42 µM | 137
31 | O=C(O)COc1ccc(-c2nccc(-c3cccs3)n2)cc1 | > 54 µM (inactive) | 1.03
32 | COc1cc2c(cc1OC)-c1cc3ccc4c(c3c[n+]1CC2)OCO4 | < 0.42 µM | 11.6
33 | O=C(c1ccccc1)c1ccc(O)cc1O | < 0.42 µM | 48.2
34 | CCc1ccc(NC(=O)c2ccc3ncsc3c2)cc1 | > 54 µM (inactive) | 0.87
35 | N#Cc1cccc(NC(=O)CSc2ccc3c4c(cccc24)C(=O)c2ccccc2-3)c1 | 5.72 µM | 3.94
36 | CCSc1nc2sc3c(c2c(=O)[nH]1)CCCC3 | > 54 µM (inactive) | 1.05
37 | O=C(OCCN1C(=O)c2cccc3c(N4CCOCC4)ccc(c23)C1=O)c1ccc(Cl)cc1 | 4.07 µM | 53.3
38 | COc1ccc(NC(=O)Cn2ncc(Cl)c(Cl)c2=O)cc1S(=O)(=O)N1CCOCC1 | > 54 µM (inactive) | 0.96
39 | CCCC(=O)NC(Oc1ccc(C(C)=O)cc1)C(Cl)(Cl)Cl (configuration not stated) | > 54 µM (inactive) | 0.993
40 | CCNc1cccc2c1C(=O)N(C)C2=O | 0.96 µM | 24.2
41 | Cn1cc(/C=C2\SC(=O)NC2=S)c2ccccc21 | > 54 µM (inactive) | 2.12
42 | O=S(=O)(Nc1ccc2c(c1)OCCO2)c1cccc2cccnc12 | > 54 µM (inactive) | 0.963

Row | Compound | IC50 | fold change
43 | O=C(OCCN1C(=O)c2cccc3c(N4CCOCC4)ccc(c23)C1=O)c1cc(Cl)cc(Cl)c1 | 1.42 µM | 49.6
44 | COC(=O)c1ccc2c(=O)sc(N3CCC(C(N)=O)CC3)nc2c1 | 4 µM | 2.35
45 | Cc1cc(-c2nc3c4c5c(sc4[nH]c(=O)n3n2)CCC5)c(C)o1 | 21.8 µM | 1.2
46 | Cc1cc(N(CCCl)CCCl)ccc1/C=N/NC(=O)c1ccco1 | > 54 µM (inactive) | 1.06
47 | CCN(CC)c1ccc2cc(S(=O)(=O)c3ccc(C)cc3)c(=O)oc2c1 | 6.25 µM | 36.6
48 | Cc1nnc(NC(=O)COc2ccc3c(C)cc(=O)oc3c2)s1 | > 54 µM (inactive) | 1.06
49 | O=C(Nc1ccc(Cl)c(Cl)c1)Nc1nnc(-c2ccncc2)s1 | 2.54 µM | 1.23
50 | CCCCN1C(=O)/C(=C/C=C2\N(C)c3ccccc3C2(C)C)SC1=S | 2.01 µM | 18.6
51 | COc1ccc(C(=O)Nc2cccc(-c3cc4ccccc4oc3=O)c2)cc1[N+](=O)[O-] | > 54 µM (inactive) | 0.607
52 | O=C(O)CSc1cc(C(=O)c2ccccc2O)cn2c(=O)c3c4c(sc3nc12)CCCC4 | > 54 µM (inactive) | 1.02
53 | COC(=O)C[n+]1cccc2ccccc21 | 1.59 µM | 14.8
54 | CCCCC1=CC2=C(c3ccco3)C(=O)C(C)(OC(=O)c3ccc(OC)cc3)C(=O)C2=CN1CCc1ccccn1 (configuration not stated) | > 54 µM (inactive) | 1.16
55 | O=C(C1=C(O)C(=O)N(c2ncccn2)C1c1cccs1)c1ccco1 (configuration not stated) | 5.21 µM | 1.87
56 | COc1ccc(C2=CC(c3ccco3)n3ncnc3N2)cc1 (configuration not stated) | 1.31 µM | 12.4
57 | COCCCn1c(=NC(=O)c2ccccc2)c(C#N)cc2c(=O)n3cccc(C)c3nc21 | 3.88 µM | 4.43
58 | O=C1CCC(=O)N1c1nc2n(n1)C(c1ccccc1)C=C(c1ccc(Br)cc1)N2 (configuration not stated) | > 54 µM (inactive) | 1.53
59 | O=C(COC(=O)c1cccnc1)NC1CCCc2ccccc21 (configuration not stated) | > 54 µM (inactive) | 1.84
60 | Nc1cc(C(=O)O)c(N)c2c1C(=O)c1ccccc1C2=O | < 0.42 µM | 4.83
61 | CC1CCc2cccc3c2N1c1cc(C#N)c(C#N)cc1O3 (configuration not stated) | 6.6 µM | 8.38
62 | CCn1c(SC(C)C(=O)O)nc2sc3c(c2c1=O)CCC3 (configuration not stated) | > 54 µM (inactive) | 1.12
63 | O=c1[nH]c2c(s1)C=Nc1ccccc1N2 | 0.81 µM | 9.16

Row | Compound | IC50 | fold change
64 | O=C(ONc1ccc(N=NC(=O)c2ccccc2O)cc1)c1ccccc1 | > 54 µM (inactive) | 1.09
65 | Cc1cc(/C=N/NC(N)=S)c(O)c(/C=N/NC(N)=S)c1 | < 0.42 µM | 26.6
66 | CCOC(=O)c1ccc2c(c1)C1C=CCC1C(C(=O)O)N2 (configuration not stated) | 4.11 µM | 1.2
67 | Cc1ccc(-c2cc(-c3ccco3)c(C#N)c(=O)[nH]2)cc1 | > 54 µM (inactive) | 1.46
68 | COc1ccc(S(=O)(=O)NCCc2ccc(F)cc2)cc1 | > 54 µM (inactive) | 0.98
69 | Cc1ccc(S(=O)(=O)Nc2nc3ccccc3nc2Nc2cccc(S(=O)(=O)N3CCCC3)c2)cc1 | 2.64 µM | 2.44
70 | Cc1cccn2c(=O)c(/C=C3\SC(=S)N(CC(C)C)C3=O)c(NCCCOC(C)C)nc12 | > 54 µM (inactive) | 1.37
71 | Cc1cccc(C)c1NC(=O)COC(=O)c1c2c(nc3ccccc13)/C(=C\c1ccc3c(c1)OCO3)CCC2 | > 54 µM (inactive) | 1.32
72 | O=c1[nH]n2c(=O)c3c([nH]c2c1N=Nc1cccc(Cl)c1)CCC3 | > 54 µM (inactive) | 0.94
73 | CCOC(=O)[C@]1(C#N)[C@@H]2C=CC(C(C)=O)=CN2[C@@H](C(N)=O)[C@@H]1c1ccsc1 | 4.35 µM | 3.68
74 | CN1CC=C2C(C#N)=C(N)C(C#N)(C#N)[C@H](c3cccc(Cl)c3)C2C1 (some centres not stated) | 3.17 µM | 4.79
75 | O=[N+]([O-])c1ccc2[nH]c(O)c(N=NC(=S)Nc3cccnc3)c2c1 | > 54 µM (inactive) | 0.61
76 | CCN(CC)S(=O)(=O)c1ccc(C(=O)OCCN2C(=O)c3cccc4c(N5CCOCC5)ccc(c34)C2=O)cc1 | 1.53 µM | 111
77 | Nc1ccc2c(c1Cl)C(=O)c1ccc(N)c(Cl)c1C2=O | 11.4 µM | 1.07
78 | CC(C)COc1ccc(C(=O)NC(CC(C)C)C(=O)O)cc1 (configuration not stated) | > 54 µM (inactive) | 1.07
79 | Cc1ccc(NC(=O)CN2C(=O)N/C(=C/c3cccn3-c3ccc(C(=O)O)cc3)C2=O)cc1 | > 54 µM (inactive) | 1.2
80 | CCCn1c(=C(C#N)C#N)s/c(=C2\C=Cc3ccccc3N2CC)c1=O | > 54 µM (inactive) | 1.52
81 | CCOc1ccccc1-c1c2cc(O)c(=O)cc-2oc2cc(O)c(O)cc12 | > 54 µM (inactive) | 232
